{"source": "patent US9573983B2", "about": "“Compositions including I-domain antigen conjugate compounds and methods for treatment of autoimmune disorders” (University of Kansas, priority 2012, dated 2017)", "molecules": {"B1": {"name": "[N-(γ-maleimido)-1-oxybutyl]n-I-domain (protein, listed as Homo sapiens)", "chain": "MGNVDLVFLFDGSMSLQPDEFQKILDFMKDVMKKLSNTSYQFAAVQFSTSYKTEFDFSDYVKRKDPDALLKHVKHMLLLTNTFGAINYVATEVFREELGARPDATKVLIIITDGEATDSGNIDAAKDIIRYIIGIGKHFQTKESQETLHKFASKPASEFVKILDTFEKLKDLFTELQKKIY", "modifications": "GMBS maleimide-modified lysines", "notes": "I-domain with lysine amino groups modified by GMBS to carry maleimide groups; negative control and intermediate"}}, "key": {"[1]": {"test": "Solubility of peptide during conjugation", "assay_type": "physicochemical", "details": "conjugation reaction mixture; peptide dissolved in DMSO before addition"}, "[2]": {"test_system": "EAE mouse model", "test": "Suppression of EAE, prophylactic and vaccine-like treatment (Example 2)", "assay_type": "in vivo, SJL/J female mice", "experimental": "Six-to-eight week old SJL/J female mice were immunized subcutaneously with 200 μg PLP139-151 peptide in a 0.2 ml emulsion consisting of equal volumes of PBS and complete Freund's adjuvant (CFA) containing killed mycobacterium tuberculosis strain H37RA at a final concentration of 4 mg/ml (Difco, Detroit, Mich.). The PLP/CFA emulsion was administered to regions above the shoulder and the flanks (total of 4 sites, 50 μl at each injection site). In addition, 200 ng of pertussis toxin was injected intraperitoneally on the day of immunization (day 0) and 2 days post-immunization.\nThe mice then received either intravenous or subcutaneous injections of IDAC (10 or 26 nmol/injection) or peptides (100 nmol/injection for Ac-PLP-BPI-NH2-2 or 50 nmol/injection/mouse for Ac-PLP-cIBR1-NH2). The prophylactic disease suppression was carried out with subcutaneous or intravenous injections of IDAC molecules on days 4 and 7, or BPI molecules on days 4, 7, and 10. Mice receiving vaccine-like treatment were given subcutaneous injections of IDAC and BPI molecules at 11, 8, and 5 days prior to the induction of disease. As negative controls, mice were treated with PBS, 1-domain, and GMB-I-domain. Disease progression was evaluated by monitoring the change in weight of the mice and clinical scoring based on the severity of nerve damage ranging from 0 to 5: 0—no clinical symptoms of disease; 1—tail weakness or limp tail; 2—paraparesis (weakness or partial paralysis of one or two hind limbs); 3—paraplegia (complete paralysis of two hind limbs); 4—paraplegia with forelimb weakness or paralysis; 5—moribund (at this point, the affected mice were euthanized).\nStatistical differences among the groups in clinical disease scores were determined by calculating the average score for each mouse from day 12 to day 17 by one-way analysis of variance followed by Fisher's least significant difference. Statistical differences in body weight among groups were also analyzed in the same fashion, but from day 12 to day 24. Comparison of cytokine concentrations was also performed by one-way analysis of variance. All analyses were performed using StatView (SAS Institute, Cary, N.C.)."}, "[3]": {"test_system": "mouse EAE model", "test": "Suppression of EAE in PLP139-151/CFA-immunized mice (Example 1)", "assay_type": "in vivo, female inbred SJL/J mice", "details": "i.v., IDAC 26 nmol/injection days 4, 7, Ac-PLP-BPI-NH2-2 100 nmol/injection days 4, 7, 10, vs PBS", "experimental": "Female inbred SJL/J mice, 5-7 weeks old, were randomly divided into different groups. All mice were immunized with PLP139-151 in Freund's complete adjuvant (CFA) to induce EAE, as reported previously (3, 4). The PLP/CFA emulsion (50 μL per site) was administered to four separate regions above the shoulder and on the flanks. In addition, 200 ng of pertussis toxin (List Biological Laboratories Inc., Campbell, Calif.) was injected intraperitoneally on day 0 and 2.\nAfter disease stimulation, one group of mice received intravenous (i.v.) injections of 26 nmol/injection/day of the conjugate IDAC on days 4 and 7. The second and third groups of mice received i.v. injections of 100 nmol/injection/day of Ac-PLP-BPI-NH2-2 and 100 microliter of PBS, respectively, on days 4, 7, and 10. The animals were weighed and observed daily. Disease progression was evaluated observed using a blinded method as reported previously (3, 4). The clinical scores were rated using the following scale: 0—no clinical signs of disease; 1—tail weakness or limp tail; 2—paraparesis (weakness or incomplete paralysis of one or two hind limbs); 3—paraplegia (complete paralysis of two hind limbs); 4—paraplegia with forelimb weakness or paralysis; and 5—moribund or dead.\nStatistical differences among the groups in clinical disease scores were determined by calculating the average score for each mouse from the day of disease onset to day 20 by One-way Analysis of Variance followed by Fisher's least significant difference using StatView (SAS Institute, Cary, N.C.). Statistical differences among the groups in body weight were also analyzed in the same way. The presence of significant difference is denoted with p-values of <0.05 or <0.001."}, "[4]": {"test_system": "EAE mouse model", "details": "earlier study (ref. 7); cited from earlier work"}, "[5]": {"test": "Hydrolysis of maleimide groups upon storage", "assay_type": "physicochemical", "details": "storage after SEC purification; to be used within 48 h"}}}
{"molecule": "Ac-GWYRSPFSRVVHLC-NH2 [MOG-Cys, Ac-GWYRSPFSRVVHLC-NH2]", "values": [{"measurement": "solubility", "setting": "[1]", "result": "low solubility"}]}
{"molecule": "Ac-HSLGKWLGHPDKF-(AcpGAcpGAcp)2-ITDGEATDSG-NH2 [Ac-PLP-BPI-NH2-2, reference compound]", "values": [{"measurement": "clinical scores (suppression of EAE)", "setting": "[2]; vaccine-like s.c. days -11, -8, -5, IDAC-3 10 nmol/injection, Ac-PLP-BPI-NH2-2 100 nmol/injection, vs PBS, p<0.005, days 12-17", "result": "significantly suppressed EAE compared to PBS"}, {"measurement": "change in body weight", "setting": "[2]; vaccine-like s.c. days -11, -8, -5, IDAC-3 10 nmol/injection, Ac-PLP-BPI-NH2-2 100 nmol/injection, vs PBS, p<0.005, days 12-24", "result": "significantly suppressed EAE compared to PBS"}, {"measurement": "onset of disease (incidence of disease)", "setting": "[2]; vaccine-like s.c., IDAC-3 26 nmol/injection days -11, -8, Ac-PLP-BPI-NH2-2 100 nmol/injection days -11, -8, -5", "result": "Delay in the onset of disease"}, {"measurement": "relapse of disease (long-term effect)", "setting": "[2]; vaccine-like s.c., IDAC-3 26 nmol/injection days -11, -8, Ac-PLP-BPI-NH2-2 100 nmol/injection days -11, -8, -5, days 45-55", "result": "along-term effect to prevent relapse"}, {"measurement": "clinical disease scores (suppression of EAE)", "setting": "[3]; p<0.0001, days 12-17", "result": "complete suppression of the disease"}, {"measurement": "incidence of disease", "setting": "[3]; p<0.0001, days 12-24", "result": "completely eliminated"}, {"measurement": "suppression of EAE, capped vs uncapped peptide", "setting": "[4]", "result": "could suppress EAE better than its uncapped counterpart (PLP-BPI)"}]}
{"molecule": "B1", "values": [{"measurement": "formation of maleimide hydrolysis products (stability)", "setting": "[5]", "result": "increased upon storage"}, {"measurement": "suppression of progress of EAE (clinical score, change in body weight, incidence of disease)", "setting": "[2]; two i.v. injections, 26 nmol/injection, days 4 and 7, vs PBS", "result": "neither the I-domain nor GMB-I-domain significantly suppressed the progress of EAE"}, {"measurement": "onset of disease", "setting": "[2]; two i.v. injections, 26 nmol/injection, days 4 and 7, vs PBS, I-domain controls", "result": "slight delay in the onset of the disease"}]}
